Patent publication US20100137449A1, “SUBSTITUTED 1,3-CYCLOPENTADIONE MULTI-TARGET PROTEIN KINASE MODULATORS OF CANCER, ANGIOGENESIS AND THE INFLAMMATORY PATHWAYS ASSOCIATED THEREWITH” (METAPROTEOMICS, LLC, priority 2007, published 2010)

How the values were obtained:
Experiment in all cases: KinaseProfiler Assay
Axl(h) = target: T1, Axl(h) (Homo sapiens, UniProt P30530)
T1 sequence (P30530 26-894): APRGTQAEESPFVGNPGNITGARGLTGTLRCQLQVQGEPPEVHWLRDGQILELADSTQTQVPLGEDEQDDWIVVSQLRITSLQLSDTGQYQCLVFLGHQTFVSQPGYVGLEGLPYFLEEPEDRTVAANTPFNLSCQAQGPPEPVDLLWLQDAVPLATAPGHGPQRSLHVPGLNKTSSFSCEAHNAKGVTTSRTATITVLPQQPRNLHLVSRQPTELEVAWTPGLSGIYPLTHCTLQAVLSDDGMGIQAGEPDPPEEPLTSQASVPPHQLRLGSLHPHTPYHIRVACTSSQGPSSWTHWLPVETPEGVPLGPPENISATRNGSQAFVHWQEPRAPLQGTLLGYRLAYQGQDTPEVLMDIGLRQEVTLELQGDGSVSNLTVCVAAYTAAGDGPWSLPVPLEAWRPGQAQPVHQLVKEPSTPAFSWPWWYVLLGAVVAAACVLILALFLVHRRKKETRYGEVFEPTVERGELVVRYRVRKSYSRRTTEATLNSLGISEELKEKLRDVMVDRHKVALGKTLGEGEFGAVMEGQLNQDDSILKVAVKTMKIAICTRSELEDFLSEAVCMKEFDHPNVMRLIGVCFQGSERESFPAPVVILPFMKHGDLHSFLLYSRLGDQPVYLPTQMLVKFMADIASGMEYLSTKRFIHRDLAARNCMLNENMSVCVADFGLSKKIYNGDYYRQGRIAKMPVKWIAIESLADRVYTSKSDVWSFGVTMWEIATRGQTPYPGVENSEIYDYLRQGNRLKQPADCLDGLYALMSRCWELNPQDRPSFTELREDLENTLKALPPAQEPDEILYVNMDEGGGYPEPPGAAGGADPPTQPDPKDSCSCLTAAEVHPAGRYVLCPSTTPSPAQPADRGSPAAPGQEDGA

CK1δ(h) = CK1δ(h) (Homo sapiens, UniProt P48730)
Sequence of CK1δ(h) (P48730 whole entry): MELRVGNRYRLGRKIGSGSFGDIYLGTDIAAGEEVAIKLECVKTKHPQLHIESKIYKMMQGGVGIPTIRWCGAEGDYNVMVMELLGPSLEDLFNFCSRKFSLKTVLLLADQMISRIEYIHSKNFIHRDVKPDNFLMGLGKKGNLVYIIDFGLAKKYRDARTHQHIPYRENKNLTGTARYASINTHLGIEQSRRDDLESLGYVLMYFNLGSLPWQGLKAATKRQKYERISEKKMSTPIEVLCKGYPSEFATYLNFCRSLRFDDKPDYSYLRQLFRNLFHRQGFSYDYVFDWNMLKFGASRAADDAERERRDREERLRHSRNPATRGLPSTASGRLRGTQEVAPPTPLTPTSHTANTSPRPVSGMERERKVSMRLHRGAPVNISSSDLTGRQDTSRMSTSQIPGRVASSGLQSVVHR

EphA3(h) = target: T2, EphA3(h) (Homo sapiens, UniProt P29320)
T2 sequence (P29320 21-983): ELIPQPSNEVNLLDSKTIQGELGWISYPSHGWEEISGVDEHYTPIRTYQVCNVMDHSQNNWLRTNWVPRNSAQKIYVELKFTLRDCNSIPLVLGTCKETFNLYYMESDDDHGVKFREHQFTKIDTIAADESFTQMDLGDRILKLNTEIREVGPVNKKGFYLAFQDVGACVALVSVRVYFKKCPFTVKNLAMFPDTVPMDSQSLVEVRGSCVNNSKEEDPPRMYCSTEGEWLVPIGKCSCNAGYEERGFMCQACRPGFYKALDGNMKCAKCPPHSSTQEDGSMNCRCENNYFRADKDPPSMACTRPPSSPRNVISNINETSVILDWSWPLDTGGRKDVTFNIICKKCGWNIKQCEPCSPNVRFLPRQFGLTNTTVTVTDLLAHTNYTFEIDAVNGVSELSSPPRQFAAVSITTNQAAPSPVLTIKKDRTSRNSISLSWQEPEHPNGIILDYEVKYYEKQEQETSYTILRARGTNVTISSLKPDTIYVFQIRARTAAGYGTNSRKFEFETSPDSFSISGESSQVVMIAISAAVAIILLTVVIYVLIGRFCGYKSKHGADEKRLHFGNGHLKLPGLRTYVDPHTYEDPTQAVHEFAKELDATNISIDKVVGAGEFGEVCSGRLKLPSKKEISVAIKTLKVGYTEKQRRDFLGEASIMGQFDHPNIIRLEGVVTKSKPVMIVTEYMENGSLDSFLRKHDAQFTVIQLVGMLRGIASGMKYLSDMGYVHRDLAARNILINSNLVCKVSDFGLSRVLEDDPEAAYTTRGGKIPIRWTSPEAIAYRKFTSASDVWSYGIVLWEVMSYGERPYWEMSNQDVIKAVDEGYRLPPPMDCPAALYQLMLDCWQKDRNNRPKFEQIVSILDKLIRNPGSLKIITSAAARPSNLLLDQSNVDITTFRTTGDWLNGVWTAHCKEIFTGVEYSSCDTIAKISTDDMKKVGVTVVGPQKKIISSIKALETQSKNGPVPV

PAK3(h) = PAK3(h) (Homo sapiens, UniProt O75914)
Sequence of PAK3(h) (O75914 whole entry): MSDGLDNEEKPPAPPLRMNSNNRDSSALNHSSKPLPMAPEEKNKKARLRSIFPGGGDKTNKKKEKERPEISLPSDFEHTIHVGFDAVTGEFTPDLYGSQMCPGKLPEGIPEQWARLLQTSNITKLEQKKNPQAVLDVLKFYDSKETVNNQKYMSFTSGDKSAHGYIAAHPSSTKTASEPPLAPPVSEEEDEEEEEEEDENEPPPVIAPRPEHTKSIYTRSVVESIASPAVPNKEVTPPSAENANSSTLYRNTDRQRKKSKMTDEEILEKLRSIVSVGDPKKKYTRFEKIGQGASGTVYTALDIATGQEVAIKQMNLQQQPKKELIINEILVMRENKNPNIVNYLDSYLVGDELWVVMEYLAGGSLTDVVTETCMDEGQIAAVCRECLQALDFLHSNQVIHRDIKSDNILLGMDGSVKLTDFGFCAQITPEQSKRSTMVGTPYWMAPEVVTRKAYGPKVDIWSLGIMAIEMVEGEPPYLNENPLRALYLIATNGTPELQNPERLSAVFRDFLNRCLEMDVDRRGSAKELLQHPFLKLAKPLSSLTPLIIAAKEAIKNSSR

PAK4(h) = PAK4(h) (Homo sapiens, UniProt O96013)
Sequence of PAK4(h) (O96013 whole entry): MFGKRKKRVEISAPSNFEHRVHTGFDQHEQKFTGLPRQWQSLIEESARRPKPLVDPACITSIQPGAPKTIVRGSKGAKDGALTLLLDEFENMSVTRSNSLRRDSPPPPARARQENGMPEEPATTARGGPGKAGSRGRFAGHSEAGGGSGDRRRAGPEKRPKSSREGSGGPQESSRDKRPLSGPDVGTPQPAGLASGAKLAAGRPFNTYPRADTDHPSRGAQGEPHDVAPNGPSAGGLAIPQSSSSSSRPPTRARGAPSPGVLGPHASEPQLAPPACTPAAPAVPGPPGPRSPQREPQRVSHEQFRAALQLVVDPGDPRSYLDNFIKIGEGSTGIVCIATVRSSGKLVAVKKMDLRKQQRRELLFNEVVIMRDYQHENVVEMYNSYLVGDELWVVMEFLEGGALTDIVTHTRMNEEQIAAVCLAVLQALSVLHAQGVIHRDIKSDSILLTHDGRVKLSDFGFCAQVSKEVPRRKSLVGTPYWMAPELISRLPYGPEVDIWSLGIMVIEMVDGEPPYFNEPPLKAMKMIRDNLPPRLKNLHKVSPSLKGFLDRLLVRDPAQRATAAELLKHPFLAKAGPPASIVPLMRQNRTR

Ron(h) = Ron(h) (Homo sapiens, UniProt Q04912)
Sequence of Ron(h) (Q04912 25-1400): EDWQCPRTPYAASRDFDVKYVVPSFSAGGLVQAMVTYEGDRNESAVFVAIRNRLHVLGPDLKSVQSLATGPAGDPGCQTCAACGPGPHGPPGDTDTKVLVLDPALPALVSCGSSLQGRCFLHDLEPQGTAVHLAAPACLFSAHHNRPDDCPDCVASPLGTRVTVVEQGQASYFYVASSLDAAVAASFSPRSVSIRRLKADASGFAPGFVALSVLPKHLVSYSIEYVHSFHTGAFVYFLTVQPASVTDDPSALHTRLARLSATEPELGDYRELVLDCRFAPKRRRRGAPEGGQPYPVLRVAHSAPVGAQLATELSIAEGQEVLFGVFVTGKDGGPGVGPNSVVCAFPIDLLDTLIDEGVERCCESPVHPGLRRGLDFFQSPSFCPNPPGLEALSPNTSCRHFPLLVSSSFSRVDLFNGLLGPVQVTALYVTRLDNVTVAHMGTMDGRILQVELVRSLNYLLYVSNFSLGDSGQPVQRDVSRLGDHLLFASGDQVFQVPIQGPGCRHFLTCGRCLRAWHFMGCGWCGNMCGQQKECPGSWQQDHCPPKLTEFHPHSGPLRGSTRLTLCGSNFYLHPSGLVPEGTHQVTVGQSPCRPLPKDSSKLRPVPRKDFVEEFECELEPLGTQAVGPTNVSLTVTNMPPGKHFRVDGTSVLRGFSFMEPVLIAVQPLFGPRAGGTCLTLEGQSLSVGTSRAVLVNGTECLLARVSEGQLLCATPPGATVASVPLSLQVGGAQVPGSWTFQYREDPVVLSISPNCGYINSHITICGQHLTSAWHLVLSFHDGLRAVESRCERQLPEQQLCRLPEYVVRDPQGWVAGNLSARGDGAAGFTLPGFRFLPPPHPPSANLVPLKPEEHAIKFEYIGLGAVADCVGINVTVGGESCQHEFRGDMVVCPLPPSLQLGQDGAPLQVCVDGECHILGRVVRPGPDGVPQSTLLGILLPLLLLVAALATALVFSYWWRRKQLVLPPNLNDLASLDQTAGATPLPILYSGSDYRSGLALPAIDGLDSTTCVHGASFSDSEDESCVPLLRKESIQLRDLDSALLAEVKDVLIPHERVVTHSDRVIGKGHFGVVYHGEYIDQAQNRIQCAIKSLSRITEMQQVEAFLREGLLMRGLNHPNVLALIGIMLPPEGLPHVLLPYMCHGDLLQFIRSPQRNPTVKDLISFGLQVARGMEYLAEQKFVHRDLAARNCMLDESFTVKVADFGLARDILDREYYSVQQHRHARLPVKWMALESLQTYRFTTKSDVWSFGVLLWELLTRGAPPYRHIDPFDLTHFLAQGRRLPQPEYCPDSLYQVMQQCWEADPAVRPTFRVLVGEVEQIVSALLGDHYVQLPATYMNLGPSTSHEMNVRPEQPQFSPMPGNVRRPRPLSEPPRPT

CC(C)CCC(=O)[C@]1(O)C(O)=C(C(=O)C(C)C)C(=O)[C@H]1CCC(C)C [TH2, tetrahydroiso-cohumulone]
kinase inhibition (Axl(h); 1 μg/ml): 106% of control | kinase inhibition (Axl(h); 5 μg/ml): 110% of control | kinase inhibition (Axl(h); 25 μg/ml): 100% of control | kinase inhibition (Axl(h); 50 μg/ml): 86% of control | kinase inhibition (Axl(h); 100 μg/ml): 65% of control | kinase inhibition (CK1δ(h); 1 μg/ml): 105% of control | kinase inhibition (CK1δ(h); 5 μg/ml): 112% of control | kinase inhibition (CK1δ(h); 25 μg/ml): 108% of control | kinase inhibition (CK1δ(h); 50 μg/ml): 80% of control | kinase inhibition (CK1δ(h); 100 μg/ml): 53% of control | kinase inhibition (EphA3(h); 1 μg/ml): 93% of control | kinase inhibition (EphA3(h); 5 μg/ml): 91% of control | kinase inhibition (EphA3(h); 25 μg/ml): 98% of control | kinase inhibition (EphA3(h); 50 μg/ml): 87% of control | kinase inhibition (EphA3(h); 100 μg/ml): 84% of control | kinase inhibition (PAK3(h); 1 μg/ml): 103% of control | kinase inhibition (PAK3(h); 5 μg/ml): 102% of control | kinase inhibition (PAK3(h); 25 μg/ml): 49% of control | kinase inhibition (PAK3(h); 50 μg/ml): 47% of control | kinase inhibition (PAK3(h); 100 μg/ml): 40% of control | kinase inhibition (PAK4(h); 1 μg/ml): 105% of control | kinase inhibition (PAK4(h); 5 μg/ml): 84% of control | kinase inhibition (PAK4(h); 25 μg/ml): 98% of control | kinase inhibition (PAK4(h); 50 μg/ml): 110% of control | kinase inhibition (PAK4(h); 100 μg/ml): 99% of control | kinase inhibition (Ron(h); 1 μg/ml): 123% of control | kinase inhibition (Ron(h); 5 μg/ml): 124% of control | kinase inhibition (Ron(h); 25 μg/ml): 123% of control | kinase inhibition (Ron(h); 50 μg/ml): 116% of control | kinase inhibition (Ron(h); 100 μg/ml): 94% of control
